Columns and labels:
HDAC6 = target: T1, HDAC6 (Homo sapiens, UniProt Q9UBN7); test: HDAC enzyme activity assay (fluorogenic substrate), HDAC6; format: biochemical; details: recombinant enzyme; read-out: HDAC6 inhibition (IC50)
T1 construct: BC069243; Cat. #50006) is full-length with N-terminal GST tag; GST (N); purchased BPS Biosciences 50006; host or cells: baculovirus infected Sf9 cells
T1 sequence (Q9UBN7 1-1215): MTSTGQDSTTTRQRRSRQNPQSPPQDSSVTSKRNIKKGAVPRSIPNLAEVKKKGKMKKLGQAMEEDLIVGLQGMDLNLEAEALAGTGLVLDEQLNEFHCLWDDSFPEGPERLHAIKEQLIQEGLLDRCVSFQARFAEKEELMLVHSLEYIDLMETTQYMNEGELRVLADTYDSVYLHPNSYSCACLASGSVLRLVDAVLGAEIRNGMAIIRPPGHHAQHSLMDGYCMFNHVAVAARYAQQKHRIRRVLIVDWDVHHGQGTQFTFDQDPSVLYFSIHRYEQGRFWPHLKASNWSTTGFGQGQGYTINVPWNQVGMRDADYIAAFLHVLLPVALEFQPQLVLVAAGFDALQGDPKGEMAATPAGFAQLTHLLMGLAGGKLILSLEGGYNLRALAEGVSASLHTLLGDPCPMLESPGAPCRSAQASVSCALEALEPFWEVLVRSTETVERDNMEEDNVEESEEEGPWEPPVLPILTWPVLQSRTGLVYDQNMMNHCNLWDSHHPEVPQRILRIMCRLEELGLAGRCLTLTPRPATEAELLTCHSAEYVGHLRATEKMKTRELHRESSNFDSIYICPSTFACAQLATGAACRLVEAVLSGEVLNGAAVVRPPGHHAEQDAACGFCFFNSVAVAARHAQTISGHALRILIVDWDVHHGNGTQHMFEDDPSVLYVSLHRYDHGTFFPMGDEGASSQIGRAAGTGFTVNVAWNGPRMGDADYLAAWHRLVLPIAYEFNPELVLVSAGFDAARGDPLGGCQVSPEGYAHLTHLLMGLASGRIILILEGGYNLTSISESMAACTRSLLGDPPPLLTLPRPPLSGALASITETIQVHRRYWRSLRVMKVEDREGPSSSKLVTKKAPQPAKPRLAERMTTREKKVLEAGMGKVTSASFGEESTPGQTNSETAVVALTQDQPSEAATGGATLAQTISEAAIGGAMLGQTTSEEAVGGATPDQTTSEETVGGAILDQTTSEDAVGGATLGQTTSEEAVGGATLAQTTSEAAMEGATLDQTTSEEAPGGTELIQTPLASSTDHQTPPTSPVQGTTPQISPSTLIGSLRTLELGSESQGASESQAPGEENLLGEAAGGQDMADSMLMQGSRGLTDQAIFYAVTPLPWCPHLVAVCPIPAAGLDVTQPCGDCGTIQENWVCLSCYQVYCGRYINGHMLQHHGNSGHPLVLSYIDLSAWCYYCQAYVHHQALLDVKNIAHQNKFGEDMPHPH

PDE9A isoform b = target: T2, PDE9A isoform b (Homo sapiens, UniProt O76083); test: PDE enzyme activity assay (HTRF cGMP), PDE9A; format: biochemical; details: recombinant enzyme; read-out: PDE9A inhibition (IC50)
T2 construct: they are full-length with N-terminal GST tag; GST (N); purchased BPS Biosciences 60090; host or cells: baculovirus infected Sf9 cells
T2 sequence (O76083 1-533 isoform O76083-2): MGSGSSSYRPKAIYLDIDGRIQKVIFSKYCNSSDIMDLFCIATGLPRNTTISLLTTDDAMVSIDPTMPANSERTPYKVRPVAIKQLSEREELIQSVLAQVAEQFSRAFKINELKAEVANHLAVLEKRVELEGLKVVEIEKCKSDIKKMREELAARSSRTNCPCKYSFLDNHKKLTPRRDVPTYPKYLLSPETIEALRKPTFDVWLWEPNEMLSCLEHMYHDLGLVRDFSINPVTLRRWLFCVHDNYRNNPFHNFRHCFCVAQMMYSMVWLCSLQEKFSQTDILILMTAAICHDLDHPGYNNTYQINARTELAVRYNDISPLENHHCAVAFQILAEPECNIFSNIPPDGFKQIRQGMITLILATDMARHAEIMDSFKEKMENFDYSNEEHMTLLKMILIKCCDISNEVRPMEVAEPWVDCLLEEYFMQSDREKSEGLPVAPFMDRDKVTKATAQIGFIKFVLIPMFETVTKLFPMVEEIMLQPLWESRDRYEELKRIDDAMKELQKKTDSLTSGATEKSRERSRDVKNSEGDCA

HDAC2 = target: T3, HDAC2 (Homo sapiens, UniProt Q92769); test: HDAC enzyme activity assay (fluorogenic substrate), HDAC2; format: biochemical; details: recombinant enzyme; read-out: HDAC2 inhibition (IC50)
T3 construct: NM_001527; Cat. #50002) is full-length with C-terminal his tag; His (C); purchased BPS Biosciences 50002; host or cells: baculovirus infected Sf9 cells
T3 sequence (Q92769 whole entry): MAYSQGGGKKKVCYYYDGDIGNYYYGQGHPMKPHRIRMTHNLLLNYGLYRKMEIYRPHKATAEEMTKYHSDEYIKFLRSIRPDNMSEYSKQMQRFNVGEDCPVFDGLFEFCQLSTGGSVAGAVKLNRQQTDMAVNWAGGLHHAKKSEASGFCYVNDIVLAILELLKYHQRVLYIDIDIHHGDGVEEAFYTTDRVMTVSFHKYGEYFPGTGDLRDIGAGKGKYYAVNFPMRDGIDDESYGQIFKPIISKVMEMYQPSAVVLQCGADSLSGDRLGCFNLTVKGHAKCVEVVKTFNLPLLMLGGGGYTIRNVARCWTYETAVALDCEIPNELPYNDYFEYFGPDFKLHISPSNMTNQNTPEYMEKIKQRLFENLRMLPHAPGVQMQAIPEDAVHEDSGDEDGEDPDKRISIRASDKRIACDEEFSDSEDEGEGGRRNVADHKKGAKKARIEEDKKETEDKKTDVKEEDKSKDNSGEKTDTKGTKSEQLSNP

HDAC1 = HDAC1 (Homo sapiens, UniProt Q13547); test: HDAC enzyme activity assay (fluorogenic substrate), HDAC1; format: biochemical; details: recombinant enzyme; read-out: HDAC1 inhibition (IC50)
Sequence of HDAC1 (Q13547 whole entry): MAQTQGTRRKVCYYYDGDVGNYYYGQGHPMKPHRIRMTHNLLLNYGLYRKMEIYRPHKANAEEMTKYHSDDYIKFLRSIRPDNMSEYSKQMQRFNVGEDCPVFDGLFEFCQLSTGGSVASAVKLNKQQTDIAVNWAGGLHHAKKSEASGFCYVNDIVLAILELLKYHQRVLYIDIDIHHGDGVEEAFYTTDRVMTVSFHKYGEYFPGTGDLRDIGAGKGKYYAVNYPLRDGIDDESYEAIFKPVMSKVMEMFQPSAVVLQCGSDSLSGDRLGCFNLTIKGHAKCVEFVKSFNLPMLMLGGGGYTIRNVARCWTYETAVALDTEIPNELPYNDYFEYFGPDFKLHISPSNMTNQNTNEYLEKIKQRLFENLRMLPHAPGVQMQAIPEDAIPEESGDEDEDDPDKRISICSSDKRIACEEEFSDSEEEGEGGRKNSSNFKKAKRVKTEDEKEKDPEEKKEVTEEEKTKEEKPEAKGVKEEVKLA

PDE5A = target: T4, PDE5A (Homo sapiens, UniProt O76074); test: PDE enzyme activity assay (HTRF cGMP), PDE5A; format: biochemical; details: recombinant enzyme; read-out: PDE5A1 inhibition (IC50)
T4 construct: they are full-length with N-terminal GST tag; GST (N); purchased BPS Biosciences 60050; host or cells: baculovirus infected Sf9 cells

HDAC3 = target: T5, HDAC3 (Homo sapiens, UniProt O15379); test: HDAC enzyme activity assay (fluorogenic substrate), HDAC3; format: biochemical; details: recombinant enzyme; read-out: HDAC3 inhibition (IC50)
T5 construct: is full-length with C-terminal his tag and human NCOR2, N-terminal GST tag; His (C); purchased BPS Biosciences 50003; host or cells: baculovirus infected Sf9 cells
T5 sequence (O15379 whole entry): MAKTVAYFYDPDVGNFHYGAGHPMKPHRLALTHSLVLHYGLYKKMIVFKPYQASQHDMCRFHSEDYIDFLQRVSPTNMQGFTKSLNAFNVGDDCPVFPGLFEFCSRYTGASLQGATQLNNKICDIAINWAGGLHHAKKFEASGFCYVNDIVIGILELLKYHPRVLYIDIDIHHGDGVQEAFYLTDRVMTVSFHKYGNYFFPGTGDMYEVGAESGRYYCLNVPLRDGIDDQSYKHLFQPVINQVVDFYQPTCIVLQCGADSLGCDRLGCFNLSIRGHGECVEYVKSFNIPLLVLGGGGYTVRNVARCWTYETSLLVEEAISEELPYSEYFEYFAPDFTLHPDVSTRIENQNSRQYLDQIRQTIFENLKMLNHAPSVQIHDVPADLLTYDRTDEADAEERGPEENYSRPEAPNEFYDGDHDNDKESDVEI
T5 sequence (Q9Y618 395-489 partner limits assumed): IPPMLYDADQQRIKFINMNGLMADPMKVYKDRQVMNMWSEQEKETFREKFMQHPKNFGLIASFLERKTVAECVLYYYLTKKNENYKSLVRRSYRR

[1] = system: acetylated histone 3 at Lys9 (AcH3K9); test: HDAC activity in wild type primary neurons (Western blot AcH3K9); format: cell-based, mouse; details: Mus musculus, Neuron, 0.5 h, 30 min, EC50 = 50% increase in AcH3K9 over basal, read-out: AcH3 (EC50)
pCREB = test: PDE activity in wild type primary neurons (Western blot pCREB); format: cell-based; details: Mus musculus, Neuron, 0.5 h, 30 min, EC50 = 50% increase in pCREB over basal

Compound	IC50 (HDAC6) [µM]	IC50 (PDE9A isoform b) [µM]	IC50 (HDAC2) [µM]	IC50 (HDAC1) [µM]	IC50 (PDE5A) [µM]	IC50 (HDAC3) [µM]	EC50 [1] [µM]	EC50 (pCREB) [µM]
CCCc1nn(C)c2c(=O)[nH]c(-c3cc(S(=O)(=O)Nc4ccc(/C=C/C(=O)NO)cc4)ccc3OCC)nc12 [Example 1-03]	–	1 to 10	0.01 to 1	0.01 to 1	< 0.01	–	–	–
CCCc1nn(C)c2c(=O)[nH]c(-c3cc(S(=O)(=O)NC4CCN(c5ncc(C(=O)NO)cn5)CC4)ccc3OCC)nc12 [Example 1-07]	0.01 to 1	1 to 10	0.01 to 1	0.01 to 1	< 0.01	0.01 to 1	–	–
CCCc1nn(C)c2c(=O)[nH]c(-c3cc(Cc4ccc(C(=O)NO)o4)ccc3OCC)nc12 [Example 1-17]	0.01 to 1	–	> 10	1 to 10	< 0.01	> 10	–	–
CCCc1nn(C)c2c(=O)[nH]c(-c3cc(Cc4ccc(CC(=O)NO)cc4)ccc3OCC)nc12 [Example 1-18]	0.01 to 1	–	> 10	> 10	0.01 to 1	> 10	–	–
CCCc1nn(C)c2c(=O)[nH]c(-c3cc(NC4CCN(c5ncc(C(=O)NO)cn5)CC4)ccc3OCC)nc12 [Example 1-22, 2-[4-[4-ethoxy-3-(1-methyl-7-oxo-3-propyl-6H-pyrazolo[4,3-d]pyrimidin-5-yl)anilino]-1-piperidyl]pyrimidine-5-carbohydroxamic acid]	0.01 to 1	–	0.01 to 1	0.01 to 1	< 0.01	0.01 to 1	–	–
CCCc1nn(C)c2c(=O)[nH]c(-c3cc(CC4CCN(c5ncc(C(=O)NO)cn5)CC4)ccc3OCC)nc12 [Example 1-24, 2-[4-[[4-ethoxy-3-(1-methyl-7-oxo-3-propyl-6H-pyrazolo[4,3-d]pyrimidin-5-yl)phenyl]methyl]-1-piperidyl]pyrimidine-5-carbohydroxamic acid]	1 to 10	–	0.01 to 1	0.01 to 1	< 0.01	0.01 to 1	–	–
CCCc1nn(C)c2c(=O)[nH]c(-c3cc(CC4CCC(C(=O)NO)CC4)ccc3OCC)nc12 (stereo not shown) [Example 1-29, 4-[[4-ethoxy-3-(1-methyl-7-oxo-3-propyl-6H-pyrazolo[4,3-d]pyrimidin-5-yl)phenyl]methyl]cyclohexanecarbohydroxamic acid]	0.01 to 1	–	> 10	0.01 to 1	0.01 to 1	–	1 to 10	1 to 10
CCCc1nn(C)c2c(=O)[nH]c(-c3cc(-c4ccc(C(=O)NO)cc4)ccc3OCC)nc12 [Example 1-30]	0.01 to 1	–	1 to 10	0.01 to 1	< 0.01	–	0.01 to 1	0.01 to 1
CCCc1nn(C)c2c(=O)[nH]c(-c3cc(C4CCC(C(=O)NO)CC4)ccc3OCC)nc12 (stereo not shown) [Example 1-40, 4-[4-ethoxy-3-(1-methyl-7-oxo-3-propyl-6H-pyrazolo[4,3-d]pyrimidin-5-yl)phenyl]cyclohexanecarbohydroxamic acid]	0.01 to 1	–	> 10	1 to 10	0.01 to 1	–	0.01 to 1	1 to 10
CCCc1nn(C)c2c(=O)[nH]c(-c3cc(CN4CCN(c5ncc(C(=O)NO)cn5)CC4)ccc3OCC)nc12 [Example 1-48, 2-[4-[[4-ethoxy-3-(1-methyl-7-oxo-3-propyl-6H-pyrazolo[4,3-d]pyrimidin-5-yl)phenyl]methyl]piperazin-1-yl]pyrimidine-5-carbohydroxamic acid]	0.01 to 1	–	0.01 to 1	0.01 to 1	< 0.01	–	0.01 to 1	0.01 to 1

The next lines start with the values.

IC50 (HDAC6) [µM]	IC50 (PDE9A isoform b) [µM]	IC50 (HDAC2) [µM]	IC50 (HDAC1) [µM]	IC50 (PDE5A) [µM]	IC50 (HDAC3) [µM]	EC50 [1] [µM]	EC50 (pCREB) [µM]	Compound
0.01 to 1	0.01 to 1	–	–	–	–	–	–	C[C@H]1CN(Cc2ccc(C(=O)NO)cc2)C[C@@H]1c1nc2c(cnn2C2CCOCC2)c(=O)[nH]1 (racemic) [Example 3-09, 4-[[(3R,4R)-3-methyl-4-(4-oxo-1-tetrahydropyran-4-yl-5H-pyrazolo[3,4-d]pyrimidin-6-yl)pyrrolidin-1-yl]methyl]benzenecarbohydroxamic acid]
0.01 to 1	0.01 to 1	–	–	–	–	–	–	C[C@@H]1CN(Cc2ccc(C(=O)NO)s2)C[C@H]1c1nc2c(cnn2C2CCOCC2)c(=O)[nH]1 (racemic) [Example 3-10]
0.01 to 1	0.01 to 1	–	–	–	–	–	–	C[C@@H]1CN(Cc2ccc(C(=O)NO)cc2)C[C@H]1c1nc2c(cnn2C2CCCC2)c(=O)[nH]1 (racemic) [Example 3-11]
1 to 10	0.01 to 1	> 10	1 to 10	–	–	–	–	CC1CN(CC2CC(C(=O)NO)C2)CC1c1nc2c(cnn2C2CCOCC2)c(=O)[nH]1 (racemic) [Example 3-12]
0.01 to 1	< 0.01	1 to 10	0.01 to 1	–	–	–	–	CC1CN(Cc2ccc(C(=O)NO)s2)CC1c1nc2c(cnn2C2CCCC2)c(=O)[nH]1 (racemic) [Example 3-17]
–	> 10	–	< 0.01	< 0.01	–	–	–	CCCc1nc(C)c2c(=O)[nH]c(-c3cc(S(=O)(=O)N4CCN(c5ncc(C(=O)NO)cn5)CC4)ccc3OCC)nn12 [Example 2-05]
0.01 to 1	–	1 to 10	0.01 to 1	< 0.01	–	0.01 to 1	0.01 to 1	CCCc1nc(C)c2c(=O)[nH]c(-c3cc(CC4CC(C(=O)NO)C4)ccc3OCC)nn12 (stereo not shown) [Example 2-07, 3-[[4-ethoxy-3-(5-methyl-4-oxo-7-propyl-3H-imidazo[5,1-f][1,2,4]triazin-2-yl)phenyl]methyl]cyclobutanecarbohydroxamic acid]
–	0.01 to 1	–	1 to 10	> 10	–	–	–	CC(c1nc2c(cnn2C2CCOCC2)c(=O)[nH]1)N1CC(Oc2ccc(-c3ccc(C(=O)NO)cc3)cc2)C1 (stereo not shown) [Example 3-03, 4-[4-[1-[1-(4-Oxo-1-tetrahydropyran-4-yl-5H-pyrazolo[3,4-d]pyrimidin-6-yl)ethyl]azetidin-3-yl]oxyphenyl]benzene carbohydroxamic acid]
0.01 to 1	0.01 to 1	1 to 10	0.01 to 1	–	–	–	–	CC(c1nc2c(cnn2C2CCOCC2)c(=O)[nH]1)N1CC(Oc2ccc(C(=O)NO)cc2)C1 (stereo not shown) [Example 3-13]
0.01 to 1	0.01 to 1	1 to 10	1 to 10	–	–	–	–	CC(c1nc2c(cnn2C2CCOCC2)c(=O)[nH]1)N1CC(Cc2ccc(C(=O)NO)cc2)C1 (stereo not shown) [Example 3-15]
1 to 10	0.01 to 1	1 to 10	1 to 10	–	–	–	–	CC(c1nc2c(cnn2C2CCOCC2)c(=O)[nH]1)N1CC(Cc2ccc(C(=O)NO)s2)C1 (stereo not shown) [Example 3-16]
0.01 to 1	> 10	0.01 to 1	0.01 to 1	0.01 to 1	–	–	–	O=C(NO)c1cnc(N2CCC(CN3CC(=O)N4[C@H](c5ccc6c(c5)OCO6)c5[nH]c6ccccc6c5C[C@@H]4C3=O)CC2)nc1 [Example 4-05]

— US9573956B2, “Compounds as dual inhibitors of phosphodiesterases and histone deacetylases” (FUNDACIÓN PARA LA INVESTIGACIÓN MÉDICA APLICADA, priority 2013, dated 2017)
